According to patent US20210284647A1, “N-(3-(IMIDAZO[1,2-B]PYRIDAZIN-3-YLETHYNYL)-4-METHYLPHENYL)-5-PHENYL-4,5-DIHYDRO-1H-PYRAZOLE-1-CARBOXAMIDE DERIVATIVE, AND PHARMACEUTICAL COMPOSITION CONTAINING SAME AS ACTIVE INGREDIENT FOR TREATING KINASE-RELATED DISEASES” (VORONOIBIO INC., priority 2018, published 2021):

What was measured:
[1] = test system: human Jurkat T cells deficient in FADD; test: Cell protection effect under apoptosis-inducing condition (TNF-α); format: cell-based; conditions: 40 ng of TNF-α, 50 hours, CellTiter-Glo, read-out: I2.I Cell EC50
Outline: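 FADD-deficient Jurkat cells (10,000/well) were cultured for 24 h, then exposed to TNF-α (40 ng) plus compound in a 3-fold series from 1 µM top (0.05% DMSO) for 50 h. Viability was read by CellTiter-Glo luminescence. EC50 is the concentration giving 50% inhibition of apoptosis relative to solvent control.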

[2] = biological target: T1, human GST-RIPK1 (Homo sapiens, UniProt Q13546); test: RIPK1 inhibitory activity (ADP-Glo kinase assay); format: biochemical; conditions: human GST-RIPK1 10 ng, ATP 50 uM, 25° C. for 4 hours, read-out: Enzyme IC50
T1 construct: GST; purchased signalchem
T1 sequence (Q13546 1-375 limits assumed): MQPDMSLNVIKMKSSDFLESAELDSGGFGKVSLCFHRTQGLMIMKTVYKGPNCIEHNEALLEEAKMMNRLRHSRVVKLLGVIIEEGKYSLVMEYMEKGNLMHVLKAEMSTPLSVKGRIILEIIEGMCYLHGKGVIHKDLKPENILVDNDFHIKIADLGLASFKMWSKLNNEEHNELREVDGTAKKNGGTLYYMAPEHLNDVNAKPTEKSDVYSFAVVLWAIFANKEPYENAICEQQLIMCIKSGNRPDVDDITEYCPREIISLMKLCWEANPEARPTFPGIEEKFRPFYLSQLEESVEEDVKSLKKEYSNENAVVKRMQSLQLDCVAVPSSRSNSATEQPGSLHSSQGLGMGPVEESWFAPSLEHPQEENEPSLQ
Outline: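 Purified human GST-RIPK1 (10 ng) was reacted with 50 uM ATP and substrate in Tris-HCl pH 7.4, MgCl2, BSA, DTT buffer for 4 h at 25 °C. ADP formed was read by ADP-Glo luminescence. IC50 is relative to solvent control, from three data sets.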

SMILES	EC50 [1] [nM]	IC50 [2] [nM]
CS(=O)(=O)c1ccc(Nc2cccn3c(C#Cc4cccc(NC(=O)N5N=CCC5c5ccccc5)c4)cnc23)cc1 (centres unmarked) [Example 65, N-(3-((8-((4-(methylsulfonyl)phenyl)amino)imidazo[1,2-a]pyridin-3-yl)ethynyl)phenyl)-5-phenyl-4,5-dihydro-1H-pyrazole-1-carboxamide 2,2,2-trifluoroacetate]	0.2	51.4
Cc1cc(Nc2cccn3c(C#Cc4cccc(NC(=O)N5N=CCC5c5ccccc5)c4)cnc23)n[nH]1 (centres unmarked) [Example 66, N-(3-((8-((5-methyl-1H-pyrazol-3-yl)amino)imidazo[1,2-a]pyridin-3-yl)ethynyl)phenyl)-5-phenyl-4,5-dihydro-1H-pyrazole-1-carboxamide 2,2,2-trifluoroacetate]	0.22	30.6
Cn1cc(Nc2cccn3c(C#Cc4cccc(NC(=O)N5N=CCC5c5ccccc5)c4)cnc23)cn1 (centres unmarked) [Example 67, N-(3-((8-((1-methyl-1H-pyrazol-4-yl)amino)imidazo[1,2-a]pyridin-3-yl)ethynyl)phenyl)-5-phenyl-4,5-dihydro-1H-pyrazole-1-carboxamide 2,2,2-trifluoroacetate]	0.08	19
Cn1ccc(Nc2cccn3c(C#Cc4cccc(NC(=O)N5N=CCC5c5ccccc5)c4)cnc23)n1 (centres unmarked) [Example 68, N-(3-((8-((1-methyl-1H-pyrazol-3-yl)amino)imidazo[1,2-a]pyridin-3-yl)ethynyl)phenyl)-5-phenyl-4,5-dihydro-1H-pyrazole-1-carboxamide 2,2,2-trifluoroacetate]	0.12	38.6
